{"source": "patent US12377110B2", "about": "“Fospropofol methods and compositions” (Epalex Corporation, priority 2019, dated 2025)", "assay": "Study A16 Part 1: PK of single ascending oral doses of fospropofol disodium (200 to 2000 mg), fasted healthy adults", "type": "in vivo, human", "conditions": "single dose of 800 mg (four 200 mg capsules)", "procedure": "Part 1 of Study A16 was a double-blind, randomized, placebo-controlled study to investigate the safety-tolerability and PK of oral administration of single ascending doses of fospropofol disodium to healthy adult male and female volunteers.\nSubjects were healthy adults (age 18-55 years inclusive, BMI 18-29.9 kg/m^2). Separate cohorts of 12 subjects each were randomized to receive fospropofol disodium at doses of 200, 400, 800, 1000, 1200, 1600, or 2000 mg (n=10 per cohort) or matching placebo (n=2 per cohort).\nSubjects were admitted to the clinical unit for an overnight fast (Day −1), administered study drug on Day 1, and remained in the clinical unit until Day 2.\nFospropofol disodium was formulated as powder in an HPMC capsule, each capsule containing 200 mg of fospropofol disodium (weight adjusted for water content). Placebo was administered as an appropriate number of matching capsules.\nBased on PK results from the early cohorts, sampling times were optimized beginning with Cohort 3 (800 mg) to preclose, 5, 10, 15, 20, 25, 30, 37, and 45, minutes and 1, 2, 4, 6, and 9 hours after closing.", "data": [{"smiles": "CC(C)c1cccc(C(C)C)c1OCOP(=O)([O-])O.[Na+]", "note": "[fospropofol disodium]", "values": [{"measurement": "Tolerability of propofol exposures", "result": "well-tolerated"}]}]}
